From patent US20100092526A1, “NANOEMULSION THERAPEUTIC COMPOSITIONS AND METHODS OF USING THE SAME” (NanoBio Corporation, priority 2008, published 2010)
Values after ≈ are worked out from the molar mass of the structure shown. Values joined by “and” are separate entries in the source; they are usually repeats but may differ in a detail not shown here. Equal values may be shown once.

System: methicillin-resistant Staphylococcus aureus (MRSA)
Experiment: Susceptibility (MIC/MBC) of MRSA clinical isolates
Type: cell-based
Details: for MBC50(15) / MIC50(15) / MBC90(26) / MIC90(26): 29 MRSA clinical isolates; for MBC50(15) / MIC50(15): rank 15; for MBC90(26) / MIC90(26): rank 26; for MBC / MIC: individual MRSA clinical isolates, values listed by rank order 1-29

| Compound | MBC50(15) [µg/mL] | MIC50(15) [µg/mL] | MBC90(26) [µg/mL] | MIC90(26) [µg/mL] | MBC | MIC |
| --- | --- | --- | --- | --- | --- | --- |
| CCC[C@@H]1C[C@@H](C(=O)N[C@@H]([C@H]2O[C@H](SC)[C@H](O)[C@@H](O)[C@H]2O)[C@H](C)Cl)N(C)C1 [Clind] | >64 | >64 | >64 | >64 | >64 μg/ml (17×) and >2 μg/ml (10×) and 2 μg/ml and 1 μg/ml | >64 μg/ml (17×) and 0.125 μg/ml (12×) |
| C[C@H]1c2cccc(O)c2C(=O)C2=C(O)[C@]3(O)C(=O)C(C(N)=O)=C(O)[C@@H](N(C)C)[C@@H]3[C@@H](O)[C@@H]21 [Dox] | >4 | 0.25 (≈ 0.563 µM) | >64 | 4 (≈ 9 µM) | >128 μg/ml and >64 μg/ml (4×) and >4 μg/ml (21×) and 2 μg/ml and 1 μg/ml (2×) | 4 μg/ml (4×) and 0.25 μg/ml (25×) |
| CC[C@H]1OC(=O)[C@H](C)[C@@H](O[C@H]2C[C@@](C)(OC)[C@@H](O)[C@H](C)O2)[C@H](C)[C@@H](O[C@@H]2O[C@H](C)C[C@H](N(C)C)[C@H]2O)[C@](C)(O)C[C@@H](C)C(=O)[C@H](C)[C@@H](O)[C@]1(C)O [Eryth] | – | 64 (≈ 87.2 µM) | – | – | 64 μg/ml and >4 μg/ml (4×) | 64 μg/ml (6×) and 32 μg/ml (3×) and 16 μg/ml and 8 μg/ml and 0.25 μg/ml (4×) |
| C[C@H]1COc2c(N3CCN(C)CC3)c(F)cc3c(=O)c(C(=O)O)cn1c23 [Levo] | 16 (≈ 44.3 µM) | 8 (≈ 22.1 µM) | >64 | 32 (≈ 88.6 µM) | >64 μg/ml (6×) and 64 μg/ml (2×) and >32 μg/ml and 32 μg/ml (5×) and 16 μg/ml (3×) and 8 μg/ml (4×) and 4 μg/ml and 1 μg/ml and 0.5 μg/ml and 0.25 μg/ml (5×) | >64 μg/ml (2×) and 32 μg/ml (5×) and 16 μg/ml (4×) and 8 μg/ml (5×) and 4 μg/ml (5×) and 2 μg/ml and 0.5 μg/ml and 0.25 μg/ml (3×) and 0.125 μg/ml (3×) |
| CC(=O)O.NCc1ccc(S(N)(=O)=O)cc1 [Maf. Acet.] | >128 | – | >128 | – | >128 µg/mL | – |
| CC(=O)O.NCc1ccc(S(N)(=O)=O)cc1 [Maf. Acet] | – | >128 | – | >128 | – | >128 μg/ml (28×) and 128 μg/ml |
